Earlier results on one substance are cited in patent publication US4833125A, “Method of increasing bone mass” (The General Hospital Corporation, priority 1987, dated 1989).

The subject of the series is osteoporosis in humans. The conditions noted are these: hPTH (1-34) alone, Reeve et al. 1980.

“hPTH (1-34): fragment of human parathyroid hormone, first thirty-four amino acid residues, given alone in cited trial (SVSEIQLMHNLGKHLNSMERVEWLRKKLQDVHNF; Parathyroid hormone; UniProt P01270 32-65, looked up, fragment)”: the axial trabecular bone entry is on record as “considerable increase”; the “calcium retention, and hence total bone mass” value is given as “improved in only about half of these patients”.
